In article PMC3466270 (PLoS ONE, 2012):

Molecular target: RSL lectin (fucose binding lectin RSL) (Ralstonia pseudosolanacearum, UniProt Q8XXK6)
Assay: biochemical

In the case of `CO[C@@H]1O[C@@H](C)[C@@H](O)[C@@H](O)[C@@H]1O` [α-L-Me-fucoside], the Kd is reported as 600 nM.
